Data taken from paper PMC4445981, “The glutamate transport inhibitor DL-Threo-β-Benzyloxyaspartic acid (DL-TBOA) differentially affects SN38- and oxaliplatin-induced death of drug-resistant colorectal cancer cells” (BMC Cancer, 2015).

Legend:
[1] = tested on: [3H]-D-Asp uptake in HCT116 and LoVo cells (parental and resistant); test: [3H]-D-Asp uptake assay, summary over cell lines; assay type: cell-based, human; conditions: all cell lines; read-out: IC50 values, inhibition of basal [3H]-D-Asp uptake
Protocol: We therefore next determined glutamate transporter activity (as uptake of the substrate [^3H]-D-Asp following a 6-min incubation in buffer supplemented with a tracer concentration of 100 nM [^3H]-D-Asp). […] To determine which transporter(s) was responsible for the [^3H]-D-Asp uptake, we assessed the effect of DL-TBOA, a nonselective inhibitor of EAATs, and UCPH-101, a specific SLC1A3 inhibitor [16, 28, 29]. […] Basal [^3H]-D-Asp uptake was decreased by about 60 % in SN38-resistant compared to parental HCT116 cells, whereas that in SN38-resistant LoVo cells was nearly tripled compared to parental LoVo cells.
The [^3H]-D-Asp uptake assay was performed essentially as in [30]. Briefly, cells were split into poly-D-lysine-coated white 96-well plates (PerkinElmer). A similar number of cells were seeded for HCT116 parental, HCT116-SN38 and HCT116-Oxa cell lines (7 × 10^4 cells/well) and LoVo parental, Lovo-SN38 and Lovo-Oxa cell lines (6 × 10^4 cells/well). 16–24 h later, culture medium was aspirated, and cells were washed once with 100 μl assay buffer (Hank’s Buffered Saline Solution supplemented with 20 mM HEPES, 1 mM CaCl2 and 1 mM MgCl2, pH 7.4). 50 μl assay buffer supplemented with 100 nM [^3H]-D-Asp and test compounds as indicated was added, and the plate was incubated at 37 °C for 6 min. Non-specific [^3H]-D-Asp uptake was determined in wells with 3 mM L-glutamate. The assay mixture was quickly removed, and wells were washed with 2 × 100 μl ice-cold assay buffer, followed by 150 μl Microscint™20 scintillation fluid (PerkinElmer). The plate was shaken for 1 h and counted in a Wallac 1450 MicroBeta Trilux scintillation counter (GMI, Ramsey, MN).

[2] = tested on: parental and drug-resistant HCT116 and LoVo cell lines; test: Nucleus (DAPI) counting of adherent cells, OPERA confocal; assay type: cell-based, human; conditions: DL-TBOA 70 or 350 μM with SN38 or oxaliplatin, 48 h
Protocol: Cells were seeded in 96-well plates (Greiner Bio) one day prior to experiments. Cells were treated with chemotherapy and/or inhibitors as indicated and incubated for 48 h. Medium was aspirated, and cells were washed gently in ice cold PBS, fixed in 2 % paraformaldehyde, washed in PBS, and nuclei stained by 5 min incubation with DAPI. Plates were scanned using an OPERA high-throughput microscope (PerkinElmer). Nucleus counting was performed using proprietary OPERA software, based on 100 points per well, and cell counts from non-treated cells as controls.
Supplementary file 12885_2015_1405_MOESM2_ESM.tiff: Additional file 2: Figure S2. Nucleus counting after treatment of parental and drug-resistant HCT116 and LoVo cells with DL-TBOA. Parental and drug-resistant HCT116 and LoVo cell lines seeded in 96-well dishes were exposed to SN38 (0.1 or 0.8 μM) or oxaliplatin (0.8 or 20 μM), alone or in combination with 70 or 350 μM DL-TBOA as indicated, for 48 h. Cells were washed in PBS, fixed in 2 % paraformaldehyde and nuclei were stained with DAPI. The number of adherent cells was determined by automated counting using an OPERA confocal microscope. (A-B) Parental HCT116 cells. (C) SN38 resistant HCT116 cells. (D) Oxaliplatin-resistant HCT116 cells. (E-F) Parental LoVo cells. (G) SN38 resistant LoVo cells. (H) Oxaliplatin-resistant LoVo cells. […]

[3] = tested on: retinoblastoma protein phosphorylation on Ser 807/811 (pRb); test: pRb (Ser 807/811) level by Western blotting; assay type: cell-based, human
Protocol: Cells were grown to a confluence of 60-80 % and treated with chemotherapy, siRNA- or plasmid transfection as indicated. Cells were washed once in PBS, lysed in lysis buffer (1 % SDS, 0.1 M Tris pH 7.5, and 1 mM Na3VO4), sonicated, and protein content determined (DC assay, BioRad). Lysates were mixed 2:1with NuPage LDS sample buffer (Invitrogen). SDS-PAGE was carried out in NOVEX chambers with NuPAGE 10 % Bis-Tris gels under reducing and denaturing conditions, using BenchMark protein ladder (Invitrogen), and 15 μg protein per lane. Proteins were transferred to PVDF membranes, which were Ponceau S stained, blocked for 1 h at 37 °C in 5 % nonfat dry milk in TBST (0.01 M Tris/HCl, 0.15 M NaCl, 0.1 % Tween 20, pH 7.4), incubated overnight at 4 °C with primary antibodies diluted in blocking buffer, washed in TBST, incubated with secondary antibodies for 1 h, washed in TBST, and developed using BCIP/NBT (KPL). Bands were scanned and quantified using UN-SCAN-IT (Silk Scientific).
Supplementary file 12885_2015_1405_MOESM5_ESM.tiff: Additional file 5: Figure S5. Effects of DL-TBOA on proliferation after chemotherapy treatment. Parental and drug-resistant HCT116 (A) and LoVo (B) cell lines seeded in 6-well dishes were exposed to SN38 (0.8 μM) or oxaliplatin (20 μM) alone or in combination with 350 μM DL-TBOA as indicated, for 24 h. Equal amounts of protein per lane were separated by SDS-PAGE and the protein levels of phosphorylation of retinoblastoma protein on Ser 807/811 (pRb) were determined by Western blotting. Top: Representative Western blots, with β-actin as loading control. Bottom: Densitometric quantifications based on 3 independent experiments per condition. Data are means with S.E.M. error bars of 3 independent experiments. Two-way ANOVA with Tukey post-test.

SLC1A3 = conditions: depending on the system and experimental setup; cited from earlier work

N[C@H](C(=O)O)[C@H](OCc1ccccc1)C(=O)O (racemic) [TBOA, DL-Threo-β-Benzyloxyaspartic acid]
IC50 [1]: ~2 µM
effect on number of surviving adherent cells after chemotherapy [2]: opposite effects of DL-TBOA on SN38- and oxaliplatin-induced loss of viability are also evident
effect on cellular level of phospho-Retinoblastoma protein ([3]; DL-TBOA, HCT116 and LoVo cells): did not significantly alter
effect on pRb level after oxaliplatin treatment ([3]; all cell types except oxaliplatin-resistant HCT116, 350 μM DL-TBOA + 20 μM oxaliplatin, 24 h, not statistically significant): slightly but consistently decreased pRb levels
effect on pRb level ([3]; control conditions, both parental cell lines, 350 μM DL-TBOA, 24 h, not statistically significant): tended to increase pRb levels
IC50 values in uptake assays (SLC1A3): low micromolar range
